Test results taken from PubChem BioAssay (NCI).
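Compound exposure: 48 hours, 5 concentrations, 96-well plates. At the TGI there is no net growth.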

Key:
Experiment in all cases: NCI-60 cell line screen, 48 h
HT29 colon = test system: HT29 colon
SK-MEL-28 melanoma = test system: SK-MEL-28 melanoma
786-0 renal = test system: 786-0 renal
SNB-19 CNS = test system: SNB-19 CNS
HL-60(TB) leukemia = test system: HL-60(TB) leukemia
BT-549 breast = test system: BT-549 breast
HOP-62 NSCLC = test system: HOP-62 NSCLC
KM12 colon = test system: KM12 colon
COLO 205 colon = test system: COLO 205 colon
SW-620 colon = test system: SW-620 colon
NCI/ADR-RES ovarian = test system: NCI/ADR-RES ovarian
NCI-H522 lung = test system: NCI-H522 lung
SR leukemia = test system: SR leukemia
K-562 leukemia = test system: K-562 leukemia
CCRF-CEM leukemia = test system: CCRF-CEM leukemia
SK-MEL-5 melanoma = test system: SK-MEL-5 melanoma
MDA-N = test system: MDA-N
ACHN renal = test system: ACHN renal
T-47D breast = test system: T-47D breast
U251 CNS = test system: U251 CNS
SNB-75 CNS = test system: SNB-75 CNS
DU-145 prostate = test system: DU-145 prostate
SF-295 CNS = test system: SF-295 CNS
CAKI-1 renal = test system: CAKI-1 renal
HCT-15 colon = test system: HCT-15 colon
HS 578T breast = test system: HS 578T breast
OVCAR-3 ovarian = test system: OVCAR-3 ovarian
OVCAR-4 ovarian = test system: OVCAR-4 ovarian
SN12C renal = test system: SN12C renal
UO-31 renal = test system: UO-31 renal
TK-10 renal = test system: TK-10 renal
RPMI-8226 leukemia = test system: RPMI-8226 leukemia
NCI-H460 lung = test system: NCI-H460 lung
HCT-116 colon = test system: HCT-116 colon
SK-MEL-2 melanoma = test system: SK-MEL-2 melanoma
UACC-257 melanoma = test system: UACC-257 melanoma
IGROV1 ovarian = test system: IGROV1 ovarian
EKVX NSCLC = test system: EKVX NSCLC
HCC-2998 colon = test system: HCC-2998 colon
PC-3 prostate = test system: PC-3 prostate
A549 NSCLC = test system: A549 NSCLC
MOLT-4 leukemia = test system: MOLT-4 leukemia
RXF 393 renal = test system: RXF 393 renal
NCI-H23 lung = test system: NCI-H23 lung
MCF7 breast = test system: MCF7 breast
OVCAR-5 ovarian = test system: OVCAR-5 ovarian
LOX IMVI melanoma = test system: LOX IMVI melanoma
MALME-3M melanoma = test system: MALME-3M melanoma
MDA-MB-435 = test system: MDA-MB-435
SF-539 CNS = test system: SF-539 CNS
UACC-62 melanoma = test system: UACC-62 melanoma
SF-268 CNS = test system: SF-268 CNS
M14 melanoma = test system: M14 melanoma
OVCAR-8 ovarian = test system: OVCAR-8 ovarian
HOP-92 NSCLC = test system: HOP-92 NSCLC
SK-OV-3 ovarian = test system: SK-OV-3 ovarian
MDA-MB-231 breast = test system: MDA-MB-231 breast
NCI-H226 lung = test system: NCI-H226 lung
A498 renal = test system: A498 renal

O=c1oc2ccc(Cl)cc2cc1C1=CSC2=NCCN12
TGI (HT29 colon): 36.3 µM | TGI (SK-MEL-28 melanoma): 80.1 µM | TGI (786-0 renal): 33.4 µM | TGI (SNB-19 CNS): 67.7 µM | TGI (HL-60(TB) leukemia): 61 µM | TGI (BT-549 breast): 37.9 µM | TGI (HOP-62 NSCLC): 34.3 µM | TGI (KM12 colon): 41.3 µM | TGI (COLO 205 colon): 41.5 µM | TGI (SW-620 colon): 49.1 µM | TGI (NCI/ADR-RES ovarian): > 100 µM | TGI (NCI-H522 lung): 34.5 µM | TGI (SR leukemia): 34.6 µM | TGI (K-562 leukemia): 36.8 µM | TGI (CCRF-CEM leukemia): 47 µM | TGI (SK-MEL-5 melanoma): 34.2 µM | TGI (MDA-N): 47.4 µM | TGI (ACHN renal): > 100 µM | TGI (T-47D breast): 79.7 µM | TGI (U251 CNS): 56.2 µM | TGI (SNB-75 CNS): > 100 µM | TGI (DU-145 prostate): 36.2 µM | TGI (SF-295 CNS): 59.1 µM | TGI (CAKI-1 renal): > 100 µM | TGI (HCT-15 colon): 41.6 µM | TGI (HS 578T breast): 93 µM | TGI (OVCAR-3 ovarian): 35.5 µM | TGI (OVCAR-4 ovarian): 65.4 µM | TGI (SN12C renal): 32.7 µM | TGI (UO-31 renal): 51.4 µM | TGI (TK-10 renal): 84.4 µM | TGI (RPMI-8226 leukemia): 44.1 µM | TGI (NCI-H460 lung): > 100 µM | TGI (HCT-116 colon): 32 µM | TGI (SK-MEL-2 melanoma): 55.8 µM | TGI (UACC-257 melanoma): > 100 µM | TGI (IGROV1 ovarian): 34 µM | TGI (EKVX NSCLC): 51.6 µM | TGI (HCC-2998 colon): 29.4 µM | TGI (PC-3 prostate): 49.2 µM | TGI (A549 NSCLC): > 100 µM | TGI (MOLT-4 leukemia): 36.4 µM | TGI (RXF 393 renal): 49.5 µM | TGI (NCI-H23 lung): 47.4 µM | TGI (MCF7 breast): 40.1 µM | TGI (OVCAR-5 ovarian): > 100 µM | TGI (LOX IMVI melanoma): 35.1 µM | TGI (MALME-3M melanoma): 79.7 µM | TGI (MDA-MB-435): 57.8 µM | TGI (SF-539 CNS): 72 µM | TGI (UACC-62 melanoma): 40.4 µM | TGI (SF-268 CNS): 33.4 µM | TGI (M14 melanoma): > 100 µM | TGI (OVCAR-8 ovarian): 38.7 µM | TGI (HOP-92 NSCLC): 48.3 µM | TGI (SK-OV-3 ovarian): > 100 µM | TGI (MDA-MB-231 breast): 40.9 µM

CCOC(=O)/C=C(/OCC)[C@@H]1C(C(=O)c2ccc(Cl)cc2)[C@H]1/C(=C\C(=O)OCC)OCC (stereo not given in full)
TGI (HT29 colon): > 100 µM | TGI (SK-MEL-28 melanoma): > 100 µM | TGI (786-0 renal): > 100 µM | TGI (SNB-19 CNS): > 100 µM | TGI (HL-60(TB) leukemia): > 100 µM | TGI (BT-549 breast): > 100 µM | TGI (HOP-62 NSCLC): > 100 µM | TGI (KM12 colon): > 100 µM | TGI (COLO 205 colon): > 100 µM | TGI (SW-620 colon): > 100 µM | TGI (NCI/ADR-RES ovarian): > 100 µM | TGI (NCI-H522 lung): > 100 µM | TGI (SR leukemia): > 23.6 µM | TGI (K-562 leukemia): > 25.2 µM | TGI (CCRF-CEM leukemia): > 100 µM | TGI (SK-MEL-5 melanoma): > 100 µM | TGI (MDA-N): > 100 µM | TGI (ACHN renal): > 100 µM | TGI (T-47D breast): > 100 µM | TGI (U251 CNS): > 100 µM | TGI (SNB-75 CNS): > 100 µM | TGI (DU-145 prostate): > 100 µM | TGI (SF-295 CNS): > 100 µM | TGI (CAKI-1 renal): > 100 µM | TGI (NCI-H226 lung): > 100 µM | TGI (HCT-15 colon): > 100 µM | TGI (HS 578T breast): > 100 µM | TGI (OVCAR-3 ovarian): > 100 µM | TGI (OVCAR-4 ovarian): > 100 µM | TGI (SN12C renal): > 100 µM | TGI (UO-31 renal): > 100 µM | TGI (TK-10 renal): > 100 µM | TGI (RPMI-8226 leukemia): > 28.8 µM | TGI (NCI-H460 lung): > 100 µM | TGI (HCT-116 colon): > 100 µM | TGI (SK-MEL-2 melanoma): > 100 µM | TGI (UACC-257 melanoma): > 100 µM | TGI (IGROV1 ovarian): > 100 µM | TGI (EKVX NSCLC): > 100 µM | TGI (PC-3 prostate): > 100 µM | TGI (A549 NSCLC): > 100 µM | TGI (MOLT-4 leukemia): > 100 µM | TGI (RXF 393 renal): > 100 µM | TGI (NCI-H23 lung): > 100 µM | TGI (MCF7 breast): > 100 µM | TGI (OVCAR-5 ovarian): > 100 µM | TGI (LOX IMVI melanoma): > 100 µM | TGI (MALME-3M melanoma): > 100 µM | TGI (MDA-MB-435): > 100 µM | TGI (SF-539 CNS): > 100 µM | TGI (A498 renal): > 100 µM | TGI (UACC-62 melanoma): > 100 µM | TGI (SF-268 CNS): > 100 µM | TGI (M14 melanoma): > 100 µM | TGI (OVCAR-8 ovarian): > 100 µM | TGI (HOP-92 NSCLC): > 100 µM | TGI (SK-OV-3 ovarian): > 100 µM | TGI (MDA-MB-231 breast): > 100 µM
